For this test, the target named is T1, mUSP18 (Mus musculus, UniProt Q9WTV6).
T1 construct: (46-368); His-tag (N); made in house
T1 sequence (Q9WTV6 46-368): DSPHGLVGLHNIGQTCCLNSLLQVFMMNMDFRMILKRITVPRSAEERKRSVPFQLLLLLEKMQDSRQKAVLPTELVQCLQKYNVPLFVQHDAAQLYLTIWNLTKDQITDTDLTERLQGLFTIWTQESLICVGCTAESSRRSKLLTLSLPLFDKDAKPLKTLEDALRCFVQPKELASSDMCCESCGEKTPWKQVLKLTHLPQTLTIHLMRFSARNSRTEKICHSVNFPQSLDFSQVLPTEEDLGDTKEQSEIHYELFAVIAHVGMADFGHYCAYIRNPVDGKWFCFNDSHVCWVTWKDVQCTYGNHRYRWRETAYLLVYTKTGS
The test is described as follows: High-throughput screening, ISG15ct-RhoMP, single dose 1.25 µM. The class given is biochemical, murine. The conditions noted are these: for inhibition of mUSP18 by individual CA's and coupling reagents: screened with and without DIC/HOBt.

Setting [1] is: mUSP18 %inhibition, carboxylic acid (CA) building block alone, read-out: %inh CA only.
Where [2] appears, read: mUSP18 %inhibition, carboxylic acid (CA) with coupling reagents DIC/HOBT, read-out: %inh CA + DIC/HOBT.

SMILES strings stand for the structures. Where two headings read alike, the source gives them in different places.

As for `Cc1nc(-c2c[nH]c(C(=O)O)c2)cs1` [CA245], the “inhibition of mUSP18 by individual CA's and coupling reagents” value is “could inhibit mUSP18”. Besides, the inhibition at 1.25 µM under setting [1] came out at 19.9%. Besides, the inhibition at 1.25 µM under setting [2] came to 52.7%.
With `O=C(O)Cc1ccn(-c2ccccc2)n1` [CA246], the inhibition at 1.25 µM amounted to 4.69% under setting [1] and 5.35% under setting [2].
On to `O=C(O)C1CC(=O)N(C2CCCCCC2)C1` (stereo not shown) [CA247], for which the inhibition at 1.25 µM under setting [1] came to 2.25% and the inhibition at 1.25 µM under setting [2] stood at 4.63%.
With `O=C(O)c1cc(C2CCCCC2)[nH]n1` [CA248], the inhibition at 1.25 µM reads like this: under setting [1], 1.65%; under setting [2], 7.2%.
In the same order, the values of `Cc1ccc(-c2cc(C(=O)O)n[nH]2)s1` [CA249] are 4.85% and 6.81%.
With `O=C(O)c1ccc(-c2ccccc2)o1` [CA250], the inhibition at 1.25 µM was found to be 3.02% under setting [1] and 5.27% under setting [2].
In the same order, the values of `O=C(O)c1cccnc1N1CCCCC1` [CA251] are -0.46% and 6%.
In the same order, the values of `O=C(O)C1=NNC(=O)C1c1ccccc1` (stereo not shown) [CA252] are 3.55% and 10.3%.
As to `Cc1nn(-c2ccc(C(F)(F)F)cn2)c(C)c1CC(=O)O` [CA253], the inhibition at 1.25 µM runs as follows: under setting [1], 3.16%; under setting [2], 9.05%.
The corresponding values for `Cc1ccc(N2CCCC(C(=O)O)C2)nc1` (stereo not shown) [CA254] are -2.11% and 7.64%.
In the same order, the values of `O=C(O)c1ccc(-c2cnco2)cc1` [CA255] are 0.58% and 7.03%.
In the same order, the values of `Cn1nc(C(=O)O)cc1-c1cccnc1` [CA256] are -0.67% and 11.7%.
Regarding `Cc1cc(COc2ccc(C(=O)O)cc2Br)no1` [CA257], the inhibition at 1.25 µM reads like this: under setting [1], 1.45%; under setting [2], 15.8%.
With `O=C(O)C1CN(S(=O)(=O)C2CC2)C1` [CA258], the inhibition at 1.25 µM by setting is: under setting [1], 20.5%; under setting [2], 2.25%.
In the same order, the values of `COc1ccc(C(=O)O)cc1S(=O)(=O)NCCc1ccccn1` [CA259] are 13.5% and 2.38%.
The corresponding values for `Cc1onc(-c2ccccn2)c1C(=O)O` [CA260] are 12.1% and 1.48%.
The corresponding values for `O=C(O)C(=O)N1CCN(c2ccccc2)CC1` [CA261] are 10.4% and 2.36%.
For `O=C(O)C(F)(F)n1cc(-c2ccccc2)nn1` [CA262], the inhibition at 1.25 µM runs as follows: under setting [1], 8.22%; under setting [2], 3.17%.
The corresponding values for `O=C(O)C1Cc2ccccc21` (stereo not shown) [CA263] are 9.79% and 2.89%.
For the molecule `O=C(O)c1ccnc(N2CCOCC2)n1` [CA264], the inhibition at 1.25 µM came to 8.23% under setting [1] and 4.28% under setting [2].
The corresponding values for `O=C(O)C1COCCN1C(=O)OCc1ccccc1` (stereo not shown) [CA265] are 7.65% and 3.99%.
For `O=C(O)c1cncc(N2CCCC2)n1` [CA266], the inhibition at 1.25 µM is 8.54% under setting [1] and 4.99% under setting [2].
The corresponding values for `CN(Cc1ccccc1)S(=O)(=O)c1ccc(C(=O)O)cc1` [CA267] are 9.75% and 5.3%.
The corresponding values for `Cn1nc(-c2cccnc2)cc1C(=O)O` [CA268] are 8.72% and 3.94%.
The corresponding values for `O=C(O)c1cnoc1-c1ccccc1C(F)(F)F` [CA269] are 6.72% and 5.54%.
As to `O=C(O)c1cn(CC2CCCO2)nn1` (stereo not shown) [CA270], the inhibition at 1.25 µM reads like this: under setting [1], 7.51%; under setting [2], 8.31%.
The corresponding values for `Cn1cc(-c2cc[nH]n2)c(C(=O)O)n1` [CA271] are 1% and 7%.
In the same order, the values of `Cc1ccc([1C@@H]2C[1C@H]2C(=O)O)s1` [CA272] are 5.08% and 8.26%.
With `CN1CCN(C(=O)[1C@@H]2[1C@@H](C(=O)O)C2(C)C)CC1` [CA273], the inhibition at 1.25 µM was determined as 5.18% under setting [1] and 5.09% under setting [2].
The corresponding values for `Cc1csc(N2CCC(C(=O)O)CC2)n1` [CA274] are 5.76% and 5.39%.
In the same order, the values of `O=C(O)c1cc(Cn2cc(Cl)cn2)cs1` [CA275] are 8.26% and 6.3%.
In the same order, the values of `Cc1nc(COc2ccc(C(=O)O)cc2)no1` [CA276] are 4.94% and 6.3%.
For the molecule `CN(Cc1ccnn1C)C(=O)C1CCCCC1C(=O)O` (stereo not shown) [CA277], the inhibition at 1.25 µM under setting [1] worked out at 5.25% and the inhibition at 1.25 µM under setting [2] amounted to 7.6%.
As for `COc1ccc(C(=O)O)cc1S(=O)(=O)NCc1ccccn1` [CA278], the inhibition at 1.25 µM under setting [1] was 3.79% and the inhibition at 1.25 µM under setting [2] was determined as 6.92%.
The corresponding values for `O=C(O)c1ccc(CN2CCCCCC2)s1` [CA279] are 4.45% and 8.32%.
As for `Cc1nc(-c2cc(C)n(CCC(=O)O)c2C)cs1` [CA280], the inhibition at 1.25 µM is 11.4% under setting [1] and 14.1% under setting [2].
For `O=C(O)c1ccc(Cl)c(N2CCCS2(=O)=O)c1` [CA281], the inhibition at 1.25 µM is, setting by setting: under setting [1], 4.15%; under setting [2], 14.1%.
Consider `Cc1noc(C)c1S(=O)(=O)N1CCC(C(=O)O)CC1` [CA282], for which the inhibition at 1.25 µM was 10.4% under setting [1] and -1.35% under setting [2].
The corresponding values for `NS(=O)(=O)c1ccc(CCNS(=O)(=O)c2cccc(C(=O)O)c2)cc1` [CA283] are 7.79% and -9.16%.
The corresponding values for `O=C(O)c1ccc(-c2cccs2)[nH]c1=O` [CA284] are 9.12% and -3.37%.
With `O=C(O)c1cc(N2CCOCC2)ccn1` [CA285], the inhibition at 1.25 µM is 2.02% under setting [1] and -5.92% under setting [2].
In the same order, the values of `O=C(O)Cc1csc(-c2nnc[nH]2)n1` [CA286] are 1.07% and -3.16%.
In the same order, the values of `O=C(O)c1ccc(-n2cccn2)cc1` [CA287] are 1.15% and -3.85%.
In the same order, the values of `Cc1ccccc1COc1cccc(CC(=O)O)c1` [CA288] are 3.53% and -1.94%.
For the molecule `O=C(O)c1ccc(S(=O)(=O)Nc2cccc(Cl)c2F)o1` [CA289], the inhibition at 1.25 µM is 1.57% under setting [1] and -1.23% under setting [2].
The corresponding values for `O=C(O)C1CCCN1C(=O)c1ccncc1` (stereo not shown) [CA290] are -0.53% and -3.12%.
In the same order, the values of `Cc1ccc(S(=O)(=O)N[C@@H](Cc2ccccc2)C(=O)O)cc1` [CA291] are 3.32% and -0.72%.
For the molecule `O=C(O)c1csc(-c2ccc(Br)s2)n1` [CA292], the inhibition at 1.25 µM runs as follows: under setting [1], 6.43%; under setting [2], 1.42%.
The corresponding values for `O=C(O)c1cc(C2CC2)n[nH]1` [CA293] are 0.33% and 14.3%.
The corresponding values for `O=C(O)c1cc(-c2ccncc2)on1` [CA294] are -3.88% and -0.96%.
In the same order, the values of `O=C(O)c1ccc(N2CCCC2)c(F)c1` [CA295] are -4.32% and 40.8%.
Regarding `O=C(O)Cc1ccc(OCCOc2ccccc2)cc1` [CA296], the inhibition at 1.25 µM is, setting by setting: under setting [1], -2.15%; under setting [2], 1.46%.
Regarding `Cc1cc(C(=O)O)c(C)n1-c1cccnc1` [CA297], the inhibition at 1.25 µM reads like this: under setting [1], -2.57%; under setting [2], -1.91%.
`O=C(O)c1csc(-c2ccncc2)n1` [CA298]: the inhibition at 1.25 µM was -1.96% under setting [1] and -1.91% under setting [2].
In the same order, the values of `O=C(O)C1CN(C(=O)OCc2ccccc2)CCO1` (stereo not shown) [CA300] are -2.04% and 0.0181%.
In the case of `O=C(O)Cc1cnn(-c2ccccc2)n1` [CA301], the inhibition at 1.25 µM under setting [1] is -3.64% and the inhibition at 1.25 µM under setting [2] stood at 0.63%.
Turning to `O=C(O)c1cccn1-c1c(Cl)cccc1Cl` [CA302], the “inhibition of mUSP18 by individual CA's and coupling reagents” value is “could inhibit mUSP18”. Also, the inhibition at 1.25 µM under setting [1] turned out to be 0.53%. Besides, under setting [2], the inhibition at 1.25 µM was determined as 98.1%.
For the molecule `O=C(O)c1cnn(-c2ccc(Br)cc2)c1` [CA303], the inhibition at 1.25 µM was -3.17% under setting [1] and 14.7% under setting [2].
In the same order, the values of `Cn1cc(-c2ccc(C(=O)O)o2)cn1` [CA304] are -4.51% and 6.42%.
In the case of `O=C(O)c1ccc(F)c(S(=O)(=O)N2CCC2)c1` [CA305], the inhibition at 1.25 µM was -6.19% under setting [1] and 9.63% under setting [2].
For `CN1C(=O)C[C@@H](C(=O)O)[C@@H]1c1cccnc1` [CA306], the “%inh CA only” value (mUSP18 %inhibition, carboxylic acid (CA) building block alone) turned out to be 15.74%. The “%inh CA + DIC/HOBT” value (mUSP18 %inhibition, carboxylic acid (CA) with coupling reagents DIC/HOBT) is on record as -6.80%.
For the molecule `Cc1nc(COc2ccccc2C(=O)O)no1` [CA307], the inhibition at 1.25 µM was 9.87% under setting [1] and -3.65% under setting [2].
As for `Cc1onc(-c2ccncc2)c1C(=O)O` [CA308], the inhibition at 1.25 µM under setting [1] is 7.23% and the inhibition at 1.25 µM under setting [2] is -3.66%.
The corresponding values for `O=C(O)c1cccc(OCCOc2ccccc2Cl)n1` [CA309] are 8.2% and -0.34%.

(Values after article PMC12668310, “High‐Throughput Synthesis and Screening of a Cyanimide Library Identifies Selective Inhibitors of ISG15‐Specific Protease mUSP18” (Angewandte Chemie (International Ed. in English), 2025).)
